The conditions of series [1]: mice, in words, earlier work; cited from earlier work.
For series [2] the following is noted: rats, in words, earlier work; cited from earlier work.
The next series deals with Caco-2. The settings on record: in words, previously designed inhibitors; cited from earlier work.
Series [3] relates to 45 different CNS targets and receptors. The conditions noted are these: of 45 targets, cited from earlier work.
For series [4] the following is noted: in words.
Another series concerns the target murine macrophage iNOS (Mus musculus, UniProt P29477). The conditions noted are these: ratio of respective Ki values.
Another series addresses bovine eNOS (Bos taurus, UniProt P29473). The conditions noted are these: ratio of respective Ki values.
The target in the next series is nNOS (Homo sapiens, UniProt P29475). Briefly: Stability of stored compound solutions. Type of series: physicochemical. The settings on record: solutions stored for longer periods of time (ca. one week).
nNOS, sequence (P29475 whole entry): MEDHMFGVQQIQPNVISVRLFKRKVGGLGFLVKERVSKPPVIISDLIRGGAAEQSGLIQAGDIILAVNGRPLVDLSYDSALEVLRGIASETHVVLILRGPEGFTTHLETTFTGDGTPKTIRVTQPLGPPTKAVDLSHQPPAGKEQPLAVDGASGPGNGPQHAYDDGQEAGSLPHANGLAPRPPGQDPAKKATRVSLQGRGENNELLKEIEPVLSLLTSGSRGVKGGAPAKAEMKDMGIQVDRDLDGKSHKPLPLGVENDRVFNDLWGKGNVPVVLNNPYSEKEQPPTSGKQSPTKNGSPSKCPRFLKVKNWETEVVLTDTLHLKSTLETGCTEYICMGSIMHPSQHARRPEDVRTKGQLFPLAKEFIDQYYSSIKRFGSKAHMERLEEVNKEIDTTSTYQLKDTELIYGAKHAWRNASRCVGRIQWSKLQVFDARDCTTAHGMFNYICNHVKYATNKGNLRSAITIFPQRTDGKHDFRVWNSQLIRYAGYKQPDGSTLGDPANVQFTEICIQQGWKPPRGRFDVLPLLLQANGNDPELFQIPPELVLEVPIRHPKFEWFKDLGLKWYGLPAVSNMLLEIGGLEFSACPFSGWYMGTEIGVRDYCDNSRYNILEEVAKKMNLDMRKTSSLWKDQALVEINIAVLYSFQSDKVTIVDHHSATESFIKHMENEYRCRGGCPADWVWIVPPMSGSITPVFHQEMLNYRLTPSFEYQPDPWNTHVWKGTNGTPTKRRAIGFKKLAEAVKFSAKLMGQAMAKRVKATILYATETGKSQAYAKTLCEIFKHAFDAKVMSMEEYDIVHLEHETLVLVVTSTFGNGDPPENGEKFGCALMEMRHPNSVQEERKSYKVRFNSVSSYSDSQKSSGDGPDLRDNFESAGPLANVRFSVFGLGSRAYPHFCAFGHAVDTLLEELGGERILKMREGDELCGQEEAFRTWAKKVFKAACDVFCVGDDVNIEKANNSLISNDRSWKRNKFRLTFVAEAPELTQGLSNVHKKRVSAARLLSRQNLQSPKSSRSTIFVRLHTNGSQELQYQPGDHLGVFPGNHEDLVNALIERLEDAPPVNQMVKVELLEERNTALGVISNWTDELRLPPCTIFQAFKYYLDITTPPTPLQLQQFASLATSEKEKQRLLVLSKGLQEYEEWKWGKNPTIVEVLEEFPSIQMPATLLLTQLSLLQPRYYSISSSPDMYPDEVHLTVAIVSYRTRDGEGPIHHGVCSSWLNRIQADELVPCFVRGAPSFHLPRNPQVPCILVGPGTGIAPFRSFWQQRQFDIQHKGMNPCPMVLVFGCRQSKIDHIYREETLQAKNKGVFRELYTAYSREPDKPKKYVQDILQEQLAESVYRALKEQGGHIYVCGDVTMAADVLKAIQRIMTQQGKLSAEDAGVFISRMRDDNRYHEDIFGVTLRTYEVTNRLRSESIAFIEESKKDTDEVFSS

Consider 6 compounds from PMC5570656 (Journal of medicinal chemistry, 2017).

Counter-ions that a name gives are not always drawn.

bovine eNOS, sequence (P29473 whole entry): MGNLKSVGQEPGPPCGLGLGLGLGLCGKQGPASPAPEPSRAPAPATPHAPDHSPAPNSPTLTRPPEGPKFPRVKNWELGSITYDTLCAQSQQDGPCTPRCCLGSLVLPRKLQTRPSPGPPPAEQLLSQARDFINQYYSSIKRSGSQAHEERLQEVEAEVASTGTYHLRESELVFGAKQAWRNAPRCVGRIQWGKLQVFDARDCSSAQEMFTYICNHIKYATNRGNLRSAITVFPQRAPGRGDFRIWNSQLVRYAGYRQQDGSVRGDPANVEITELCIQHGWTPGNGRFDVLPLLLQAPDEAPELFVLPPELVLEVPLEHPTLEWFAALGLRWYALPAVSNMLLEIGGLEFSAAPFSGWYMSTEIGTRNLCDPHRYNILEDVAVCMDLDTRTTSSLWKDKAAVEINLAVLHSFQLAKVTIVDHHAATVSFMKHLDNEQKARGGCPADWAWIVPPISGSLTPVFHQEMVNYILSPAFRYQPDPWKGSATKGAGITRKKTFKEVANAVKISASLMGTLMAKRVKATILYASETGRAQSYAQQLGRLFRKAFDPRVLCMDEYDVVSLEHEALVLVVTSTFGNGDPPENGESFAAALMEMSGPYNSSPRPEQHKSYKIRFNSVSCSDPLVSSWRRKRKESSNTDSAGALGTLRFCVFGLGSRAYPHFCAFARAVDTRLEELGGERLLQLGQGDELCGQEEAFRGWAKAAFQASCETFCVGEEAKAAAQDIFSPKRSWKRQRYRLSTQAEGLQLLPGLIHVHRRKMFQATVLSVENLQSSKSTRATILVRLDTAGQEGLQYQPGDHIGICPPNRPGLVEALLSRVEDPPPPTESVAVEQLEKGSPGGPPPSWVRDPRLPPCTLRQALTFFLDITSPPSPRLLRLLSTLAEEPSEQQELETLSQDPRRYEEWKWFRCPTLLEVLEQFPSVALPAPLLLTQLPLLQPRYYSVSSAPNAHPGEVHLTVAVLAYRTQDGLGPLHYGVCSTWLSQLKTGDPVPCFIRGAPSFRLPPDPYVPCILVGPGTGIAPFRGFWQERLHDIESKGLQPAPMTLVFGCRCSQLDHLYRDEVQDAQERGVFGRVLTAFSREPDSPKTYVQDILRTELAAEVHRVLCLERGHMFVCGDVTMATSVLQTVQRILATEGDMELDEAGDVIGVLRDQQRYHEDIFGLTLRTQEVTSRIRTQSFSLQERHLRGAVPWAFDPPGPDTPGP
murine macrophage iNOS, sequence (P29477 whole entry): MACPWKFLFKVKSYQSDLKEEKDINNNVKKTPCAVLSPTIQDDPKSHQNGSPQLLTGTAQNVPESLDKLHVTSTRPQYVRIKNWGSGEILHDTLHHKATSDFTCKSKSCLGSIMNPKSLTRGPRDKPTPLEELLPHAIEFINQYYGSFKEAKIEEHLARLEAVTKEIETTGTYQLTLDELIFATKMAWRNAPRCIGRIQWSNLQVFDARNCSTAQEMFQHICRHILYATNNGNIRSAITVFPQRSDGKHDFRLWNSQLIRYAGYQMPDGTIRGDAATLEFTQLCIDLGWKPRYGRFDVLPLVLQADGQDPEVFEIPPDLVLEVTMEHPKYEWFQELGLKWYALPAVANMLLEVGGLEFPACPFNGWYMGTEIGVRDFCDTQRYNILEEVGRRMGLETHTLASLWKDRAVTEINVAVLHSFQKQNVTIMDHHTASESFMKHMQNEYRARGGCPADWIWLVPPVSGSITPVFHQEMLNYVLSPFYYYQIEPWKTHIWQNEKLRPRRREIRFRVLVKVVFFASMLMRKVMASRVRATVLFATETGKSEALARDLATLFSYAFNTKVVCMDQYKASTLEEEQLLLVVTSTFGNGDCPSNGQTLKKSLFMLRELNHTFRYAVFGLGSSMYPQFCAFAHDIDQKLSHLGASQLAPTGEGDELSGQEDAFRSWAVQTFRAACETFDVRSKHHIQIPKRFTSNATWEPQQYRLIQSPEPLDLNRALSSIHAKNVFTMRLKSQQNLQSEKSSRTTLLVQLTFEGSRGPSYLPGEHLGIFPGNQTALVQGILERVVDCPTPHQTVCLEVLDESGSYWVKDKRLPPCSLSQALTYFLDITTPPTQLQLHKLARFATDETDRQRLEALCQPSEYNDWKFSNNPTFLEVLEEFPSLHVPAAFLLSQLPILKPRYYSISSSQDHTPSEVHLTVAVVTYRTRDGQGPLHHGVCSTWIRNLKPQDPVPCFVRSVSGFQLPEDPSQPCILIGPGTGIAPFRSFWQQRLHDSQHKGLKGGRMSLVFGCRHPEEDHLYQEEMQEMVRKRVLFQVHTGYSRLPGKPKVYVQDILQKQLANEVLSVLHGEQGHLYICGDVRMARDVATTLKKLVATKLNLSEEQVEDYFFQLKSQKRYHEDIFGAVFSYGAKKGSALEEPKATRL

Take `Nc1ccc2ccc(CCNCCc3cccc(F)c3)cc2n1` [Compound 4]: the oral bioavailability entry in series [1] was “good”.
Take `Nc1ccc2ccc(CCNCCc3cccc(Cl)c3)cc2n1` [Compound 5]: the brain penetration result in series [2] was “brain penetration”.
For `CNCc1cc(OCc2ccc3ccc(N)nc3c2)ccc1Cl` [Compound 6], the Caco-2 permeability result with Caco-2 is given as “poor”. Moreover, in series [3] (100-300 nM), the “PDSP number of targets classified Moderate” value is 3. In series [3] (<50% bound at 10 μM), the “PDSP number of targets classified Insignificant” value was 22. Also, the “PDSP number of targets classified Weak” value in series [3] (>300 nM) is 17. Further, in series [3] (Ki <100 nM), the “PDSP number of targets classified Concerning” value was 3.
With `N#Cc1cccc(NCc2ccc3ccc(N)nc3c2)c1` [Compound 7, 3-(((2-Aminoquinolin-7-yl)methyl)amino)benzonitrile Dihydrochloride], the solubility result in series [4] is “poor”.
Turning to `CN(C)c1cccc(CNCc2ccc3ccc(N)nc3c2)c1` [Compound 12, 7-(((3-(Dimethylamino)benzyl)amino)methyl)quinolin-2-amine Trihydrochloride], the Selectivity rn/mi at murine macrophage iNOS is 71. For the same compound, at bovine eNOS, the Selectivity rn/be amounted to 16.
Consider `CN(C)c1cccc(CCNCc2ccc3ccc(N)nc3c2)c1` [Compound 14, 3-(Dimethylamino)phenethyl)amino)methyl)quinolin-2-amine Trihydrochloride], for which the stability of solutions entry at nNOS was “lost their nNOS inhibitory activity”.
